“Also recorded” adds a separate entry of the source. Like-named read-outs stand apart in the source and are kept apart here.
Key:
[1] = cited from earlier work
GBM patients = assay: Adverse events (CTCAE version 4.0) in the same clinical study; format: in vivo, human; conditions: 46 patients
Experimental: Baseline evaluation including neurologic assessment, complete blood analysis, and tumor imaging with contrast-enhanced MRI was performed pre-operatively and immediately postoperatively, usually within 48 hours. KPS was graded by the treating provider. Repeat assessment by physical examination and imaging was performed at the completion of initial chemoradiotherapy, just prior to the first vaccine administration. Final eligibility to receive vaccine was determined at this time point. After initiation of vaccine therapy, patients were evaluated every 4 weeks by clinical examination, and every 8 weeks by radiographic imaging with contrast-enhanced MRI. Tumor progression was assessed according to the modified RANO criteria (Table 1). Adverse events were assessed and graded according to the National Cancer Institute Common Terminology Criteria for Adverse Event (CTCAE), version 4.0.

GBM [2] = conditions: cited from earlier work; for Median PFS / Median Survival: Rad/TMZ plus Avastin arm
GBM [3] = assay: Published GBM trials used for comparison (Tables 13 and 14, discussion); format: in vivo, human; conditions: Rad/TMZ plus Avastin arm
[4] = AVAglio, Chinot et al, NEJM 2014
[5] = RTOG 0825 Gilbert, et al. NEJM 2014
[6] = RTOG 0825 Trial, Gilbert, NEJM 2013, N = 637

Compound | concentrations in the central nervous system relative to plasma concentrations ([1]; following oral administration) | blood-brain barrier penetration ([1]; in vivo) | bioavailability ([1]; taken orally) | Any Adverse Event: TWZ-related event (GBM patients) | Grade 3-4 Event: TWZ-related event (GBM patients) | Median PFS (GBM [2]; [4]) [months] | Median Survival (GBM [2]; [4]) [months] | Median PFS (GBM [2]; [5]) [months] | Median Survival (GBM [2]; [5]) [months] | Median Survival, Methylated (GBM [2]; [6]) [months] | Median Survival, Unmethylated (GBM [2]; [6]) [months] | Median overall survival, methylated patients (GBM [2]; bevacizumab trials) [months] | Median overall survival, unmethylated patients (GBM [2]; bevacizumab trials) [months] | Benefit of adding bevacizumab to radiation and temozolomide (GBM [2]; newly diagnosed GBM, randomized phase 3 trials vs placebo) | Estimated Post-Progression Survival (GBM [3]; [4]) [months] | Estimated Post-Progression Survival (GBM [3]; [5]) [months]
Cn1nnc2c(C(N)=O)ncn2c1=O [temozolomide] | approximately 30% | able to cross the blood-brain barrier | greater than 95% | 42 (91.3%) no. of patients (%) | 21 (45.6%) no. of patients (%) | – | – | – | – | – | – | – | – | – | – | –
bevacizumab [Avastin] | – | – | – | – | – | 10.6 | 16.8 | 10.7 | 16.1 | 23.2 | 14.3 | 25.0 | 14.6 | no significant benefit; also recorded: no improvement in overall survival compared to placebo | 6.2 | 5.4

Source: US20180318347A1, “METHODS FOR TREATING CANCER” (Agenus Inc., priority 2015, published 2018)
